# Molecular target: T1, His6-RMDPa (Pseudomonas aeruginosa, UniProt Q9HTB6)
# T1 sequence (Q9HTB6 2-304 limits assumed): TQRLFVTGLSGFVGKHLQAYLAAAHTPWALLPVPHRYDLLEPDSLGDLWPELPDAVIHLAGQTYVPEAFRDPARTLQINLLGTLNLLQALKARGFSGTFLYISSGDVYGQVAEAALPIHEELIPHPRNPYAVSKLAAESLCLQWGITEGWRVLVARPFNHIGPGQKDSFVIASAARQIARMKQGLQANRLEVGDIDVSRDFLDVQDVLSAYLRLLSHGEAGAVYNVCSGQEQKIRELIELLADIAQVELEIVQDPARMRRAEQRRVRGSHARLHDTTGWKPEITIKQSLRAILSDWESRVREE
# Experiment: capillary electrophoresis and NMR of product
# Format: biochemical
# Details: with GDP-6-deoxy-D-lyxo-hexos-4-ulose; hydride donor; 37 °C, pH 7.5
smiles,measurement,value
NC(=O)C1=CN([C@@H]2O[C@H](COP(=O)(O)OP(=O)(O)OC[C@H]3O[C@@H](n4cnc5c(N)ncnc54)[C@H](OP(=O)(O)O)[C@@H]3O)[C@@H](O)[C@H]2O)C=CC1 [NADPH],capillary electrophoresis and NMR of product,"in the presence of excess NADPH, His6-RMDPa catalyzed the conversion"

# Reference: publication PMC4381037 (The FEBS journal, 2009)
